Assay results reported in patent publication US11357745B2, “Methods and materials for treating cytokine release syndrome” (Mayo Foundation for Medical Education and Research, priority 2018, dated 2022).

What was measured:
[1] = tested on: human myeloma cell lines (HMCLs); experiment: MTT assay across 10 human myeloma cell lines, compared with receptor surface expression by flow cytometry; format: cell-based
Description: Surface expression of IL-6Rα, IL-6ST and CD44 was quantified using IL-6Rα-PE (clone UV4, Biolegend), IL-6ST-APC (2E1B02, Biolegend) and CD44-BV711 (IM7, Biolegend), and compared to isotype or unstained control.

IL-6Rα [2] = experiment: Flow cytometry, IL-6Rα on Hep3B hepatocytes; format: cell-based, human; conditions: metformin 10 mM, 72 hours
Method: Human hepatocellular carcinoma cell line Hep3B was purchased from ATCC. Cells were maintained in DMEM supplemented with 10% FBS and 100 U/mL penicillin and 100 μg/mL streptomycin.
Surface expression of IL-6Rα, IL-6ST and CD44 was quantified using IL-6Rα-PE (clone UV4, Biolegend), IL-6ST-APC (2E1B02, Biolegend) and CD44-BV711 (IM7, Biolegend), and compared to isotype or unstained control. BrdU labelling assay (Phase-Flow™, Biolegend) was performed according to the manufacturer's protocol to quantify cell cycle fractions. After treatment cells were labelled with BrdU for 2 hours. For apoptosis assay, cells were treated with metformin for 72 hours and quantified with Annexin V (Biolegend). All assays were quantified on LSR Fortessa. Data were analyzed using flowJo vs10.4.2 (Flowjo LLC, USA).

U266 [3] = experiment: Annexin V / propidium iodide apoptosis assay, U266; format: cell-based, human; conditions: U266, metformin 10 mM, 72 hours, Annexin V/PI
Method: (§1) Data is presented as heat map intensity corresponding to the level of expression. (B) HMCLs were treated with different doses of metformin for 72 hours and relative proliferation compared to vehicle control was calculated using MTT assay. Data is presented as IC50 for different cell lines and IC50 was calculated using Compusyn software (n=6). (C) & (D) HMCLs MM1S, RPMI, and U266 were treated with vehicle control (DMSO) or metformin 10 mM for 72 hours. (C) For apoptosis assay, cells were suspended in Annexin V buffer and stained with Annexin V for 30 minutes. Propidium iodide was added 10 minutes prior to data acquisition by flow cytometry. (D) For cell cycle assay, BrdU was added and incubated for 4 hours. […] The data were acquired on BD Fortessa and analyzed with flowjo V10.
(§2) Cell surface expression of IL-6Rα, IL-6ST, and CD44 was quantified using the fluorescently labeled antibodies anti-IL6R-PE (UV4, Biolegend), anti-IL6ST-APC (2E1B02, Biolegend) and anti-CD44-BV711 (IM7, Biolegend), and compared with isotype control. BrdU labeling assay (Phase-Flow™, Biolegend) was performed according to the manufacturer's protocol to quantify cell cycle. […] For apoptosis assay, the cells were treated with metformin for 72 hours and quantified with Annexin V (Biolegend). […] The data were analyzed using flowJo vs10.4.2 (Flowjo LLC, USA). […]

IL-6Rα mRNA = experiment: IL-6Rα mRNA, qPCR TaqMan assay; format: cell-based, human; conditions: RPMI and ANBL6, metformin 10 mM, 72 hours
Method: (§3) RPMI, ANBL6, U266, MM1S, and JJN3 were treated with metformin 10 mM for 72 hours and median fluorescence intensity for cell surface expression of (A) IL-6Rα, (B) IL-6-Rβ and (C) CD44 was quantified using flow cytometry. Vehicle (open bar) and metformin 10 mM (shaded bar), n=3. (D) RPMI and ANBL6 cells were cultured either in the presence of vehicle control or metformin 10 mM for 72 hours. Soluble IL-6Rα was quantified in media supernatant using ELISA kit. Vehicle (open bar) and metformin 10 mM (shaded bar), n=6. […] (E) RPMI and ANBL6 cells were cultured either in presence of vehicle control or metformin 10 mM for 72 hours. mRNA expression of IL-6Rα was quantified using qPCR TaqMan assay. Vehicle (open bar) and metformin 10 mM (shaded bar), n=6.

[4] = tested on: JJN3 engineered to over-express IL-6Rα; experiment: MTT assay in JJN3 cells over-expressing IL-6Rα; format: cell-based, human; conditions: n=6
Method: Ten different HMCLs were treated with metformin (0, 1 mM, 5 mM, 10 mM, 20 mM, 40 mM, and 80 mM) for 72 hours. The total numbers of live cells (metabolically active) were estimated using MTT assay. Relative proliferation was calculated by normalizing absorbance value with that obtained for vehicle control. IC50 was calculated using Compusyn software. […] (D) JJN3 IL-6Rα over-expressing cells were created using IL-6R cDNA expressing vector. Increased expression of IL-6Rα was confirmed by flow cytometry. (E) The sensitivity to metformin (IC50) was calculated using the MTT assay for cells transduced with the shRNA scrambled control or IL-6Rα KDs (n=6). […] (F) Metformin IC50 was calculated using MTT assay for JJN3 control and IL-6Rα over-expresser (n=6).
(3-(4,5-Dimethylthiazol-2-5-Diphenyltetrazolium Bromide (MTT) (ThermoFisher Scientific, MA, USA) was dissolved in PBS to make 12 mM stock solution. Cells were seeded at 10,000 cells in 50 μL complete medium. Drugs, cytokines and antibodies were added at indicated doses in 50 μL complete medium. HMCLs were incubated for 72 hours while primary myeloma cells were incubated for 48 hours in presence of vehicle control, metformin (1 mM, 5 mM, 10 mM, 20 mM, 40 mM and 80 mM). MTT (10 μL) was added to each well and incubated for an additional 2 hours. Lysis buffer (100 μL) was added to each well and absorbance was read at 570 nm. […]

primary myeloma cells = experiment: MTT assay in primary myeloma cells (CD138+ enriched); conditions: metformin 10 mM, 48 hours
Method: (A) Bone marrow aspirates were enriched for multiple myeloma cells by with magnetic associated cell sorting using CD138^+ (a marker for myeloma cells). Cells were treated with metformin 10 mM or vehicle control. After 48 hours of culture, the MTT assay was performed to determine the percentage of live cells. Data is presented as relative proliferation compared to vehicle control (n=6 per sample).
CD138^+ cells from bone marrow aspirates were enriched using magnetic associated cell sorting at the Hematology Research Core (Mayo Clinic Rochester, USA). Primary myeloma cells were maintained in RPMI supplemented with 10% FBS, antibiotics and 1 ng/mL IL-6.
(3-(4,5-Dimethylthiazol-2-5-Diphenyltetrazolium Bromide (MTT) (ThermoFisher Scientific, MA, USA) was dissolved in PBS to make 12 mM stock solution. Cells were seeded at 10,000 cells in 50 μL complete medium. Drugs, cytokines and antibodies were added at indicated doses in 50 μL complete medium. HMCLs were incubated for 72 hours while primary myeloma cells were incubated for 48 hours in presence of vehicle control, metformin (1 mM, 5 mM, 10 mM, 20 mM, 40 mM and 80 mM). MTT (10 μL) was added to each well and incubated for an additional 2 hours. Lysis buffer (100 μL) was added to each well and absorbance was read at 570 nm. […] IC50 was calculated using Compusyn software.

MM1S [5] = experiment: BrdU cell cycle assay, MM1S; format: cell-based, human; conditions: metformin 10 mM, 72 hours, from 34% without metformin
Method: as §1, §2

IL-6Rα [6] = experiment: Flow cytometry, cell surface IL-6Rα on primary myeloma cells; format: cell-based, human; conditions: metformin 10 mM, 48 hours, n=11
Method: (§4) Surface expression of IL-6Rα, IL-6ST and CD44 was quantified using IL-6Rα-PE (clone UV4, Biolegend), IL-6ST-APC (2E1B02, Biolegend) and CD44-BV711 (IM7, Biolegend), and compared to isotype or unstained control. BrdU labelling assay (Phase-Flow™, Biolegend) was performed according to the manufacturer's protocol to quantify cell cycle fractions. After treatment cells were labelled with BrdU for 2 hours. For apoptosis assay, cells were treated with metformin for 72 hours and quantified with Annexin V (Biolegend). All assays were quantified on LSR Fortessa.

JJN3 = experiment: MTT assay, metformin in JJN3 myeloma cells; format: cell-based; conditions: Homo sapiens, JJN-3, JJN3, 72 hours, Compusyn, read-out: metformin required for 50% cell death/growth inhibition (IC50)
Method: (§5) Data is presented as heat map intensity corresponding to the level of expression. (B) HMCLs were treated with different doses of metformin for 72 hours and relative proliferation compared to vehicle control was calculated using MTT assay. Data is presented as IC50 for different cell lines and IC50 was calculated using Compusyn software (n=6). (C) & (D) HMCLs MM1S, RPMI, and U266 were treated with vehicle control (DMSO) or metformin 10 mM for 72 hours. (C) For apoptosis assay, cells were suspended in Annexin V buffer and stained with Annexin V for 30 minutes. Propidium iodide was added 10 minutes prior to data acquisition by flow cytometry. (D) For cell cycle assay, BrdU was added and incubated for 4 hours. Cells were fixed, permeabilized and stained with Anti-BrdU antibody for 30 minutes. 7AAD was added 10 minutes to samples before data acquisition by flow cytometry. The data were acquired on BD Fortessa and analyzed with flowjo V10.
(§6) IC50 was calculated using Compusyn software.

RPMI [7] = experiment: BrdU cell cycle assay, RPMI; format: cell-based, human; conditions: metformin 10 mM, 72 hours, from 53% without metformin
Method: as §1, §2

U266 [8] = experiment: BrdU cell cycle assay, U266; format: cell-based, human; conditions: U266, metformin 10 mM, 72 hours, from 35% without metformin
Method: as §1, §2

CD44 = experiment: Flow cytometry, cell surface CD44 in HMCLs; format: cell-based, human; conditions: RPMI, ANBL6, U266, MM1S, JJN3; metformin 10 mM, 72 hours
Method: as §3, §4

soluble IL-6Rα = conditions: RPMI and ANBL6, metformin 10 mM, 72 hours, ELISA
Method: as §3

[9] = tested on: IL-6 induced CRP production from hepatocytes (Hep3B); conditions: metformin 10 mM pre-treatment 72 hours, IL-6 50 ng/ml, 48 hours
RPMI [10] = experiment: MTT assay, metformin in RPMI myeloma cells; format: cell-based; conditions: Homo sapiens, 72 hours, Compusyn, read-out: metformin required to achieve 50% cell death/growth inhibition (IC50)
Method: as §5, §6

MM1S [11] = experiment: Annexin V / propidium iodide apoptosis assay, MM1S; format: cell-based, human; conditions: metformin 10 mM, 72 hours, Annexin V/PI
Method: as §1, §2

IL-6Rα [12] = experiment: Flow cytometry, cell surface IL-6Rα in HMCLs; format: cell-based, human; conditions: RPMI, ANBL6, U266, MM1S, JJN3; metformin 10 mM, 72 hours
Method: as §3, §4

RPMI IL-6Rα knock-downs = experiment: MTT assay in RPMI IL-6Rα knock-down cells; format: cell-based, human; conditions: n=6
Method: as §6
pGFP-C-shLenti vectors (4 shRNA targeting IL-6Rα and 1 scramble control) were purchased from Origene. Lentiviral particles were generated in HEK293T cells using pMD2.G (Addgene) and psPAX2 (Addgene). HMCLs were transduced with lentiviral vector particles in the presence of Polybrene (Millipore). Stable cell lines were generated after selecting for GFP positive cells with flow sorting and treatment with puromycin. Decreased expression of IL-6Rα compared to scrambled control was confirmed with qPCR and flow cytometer.

KMS12PE = experiment: MTT assay, metformin in KMS12PE myeloma cells; format: cell-based; conditions: Homo sapiens, KMS-12-PE, 72 hours, Compusyn, read-out: metformin required to achieve 50% cell death/growth inhibition (IC50)
Method: as §5, §6

ALMC1 and ALMC2 = experiment: MTT assay in primary amyloidosis (AL) cell lines; format: cell-based; conditions: ALMC2 high, ALMC1 low IL-6Rα expresser
Method: (3-(4,5-Dimethylthiazol-2-5-Diphenyltetrazolium Bromide (MTT) (Thermo Fisher Scientific, MA, USA) was dissolved in PBS to make 12 mM stock solution. Cells were seeded at 10,000 cells in 50 μl complete medium. Drugs, cytokines and antibodies were added at indicated doses in 50 μl complete medium. Cells were incubated for 72 hours for HMCLs and 48 hours for primary myeloma cells in presence of vehicle control, or metformin (1 mM, 5 mM, 10 mM, 20 mM, 40 mM, and 80 mM). MTT (10 μl) was added to each well and incubated for an additional 2 hours. Lysis buffer (100 μl) was added to each well and absorbance was read at 570 nm.

RPMI [13] = experiment: Annexin V / propidium iodide apoptosis assay, RPMI; format: cell-based, human; conditions: metformin 10 mM, 72 hours, Annexin V/PI
Method: as §1, §2

**Q.** With `[H]/N=C(/N)N/C(=N/[H])NCCc1ccccc1` [Phenformin] as the compound, how does the “Phenformin IC50 versus IL-6Rα expression” value ([1]; MTT IC50 vs flow cytometry) read?
**A.** strongly negatively correlated

**Q.** `CN(C)C(=N)N=C(N)N` [metformin] was tested. Which “IL-6Rα expression on hepatocytes” value (IL-6Rα [2]) did it give?
**A.** expression of the receptor decreased

**Q.** And the “percentage of live cells after metformin treatment” value (from here on “percentage of live cells”) (U266 [3])?
**A.** 67%

**Q.** And the “IL-6Rα mRNA level (transcription)” value (IL-6Rα mRNA)?
**A.** decreased the level of IL-6Rα transcription

**Q.** What about the “IC50 for metformin in JJN3 over-expressing IL-6Rα compared to wild type JJN3” value [4] of the same compound?
**A.** significantly decreased

**Q.** What about the “survival/proliferation of primary myeloma cells” value (primary myeloma cells) of the same compound?
**A.** decreased survival/proliferation

**Q.** And the “S phase fraction after metformin treatment” value (“S phase fraction” for short) (MM1S [5])?
**A.** 23%

**Q.** What about the “cell surface expression of IL-6Rα on primary myeloma cells” value (IL-6Rα [6]) of the same compound?
**A.** decreased cell surface expression of IL-6Rα

**Q.** What about the IC50 (JJN3) of the same compound?
**A.** > 30 mM

**Q.** What about the “S phase fraction” value (RPMI [7]) of the same compound?
**A.** 29%

**Q.** What about the “S phase fraction” value (U266 [8]) of the same compound?
**A.** 20%

**Q.** And the CD44 expression (CD44)?
**A.** no significant change

**Q.** What about the “soluble IL-6Rα in media” value (soluble IL-6Rα) of the same compound?
**A.** decrease

**Q.** And the “IL-6 induced CRP production from hepatocytes” value [9]?
**A.** significantly inhibited

**Q.** What about the IC50 (RPMI [10]) of the same compound?
**A.** < 10 mM

**Q.** And the “percentage of live cells” value (MM1S [11])?
**A.** 76%

**Q.** And the “survival/growth of multiple myeloma cells” value ([1]; 72 hours, MTT, variable levels of efficacy)?
**A.** inhibited survival/growth

**Q.** What about the “cell surface expression of IL-6Rα” value (IL-6Rα [12]) of the same compound?
**A.** significantly and consistently reduced

**Q.** What about the “IC50 for metformin in RPMI IL-6Rα knock-downs compared to scramble control” value (RPMI IL-6Rα knock-downs) of the same compound?
**A.** significantly increased

**Q.** And the IC50 (KMS12PE)?
**A.** < 10 mM

**Q.** What about the “Metformin IC50, ALMC2 compared to ALMC1” value (ALMC1 and ALMC2) of the same compound?
**A.** lower for ALMC2 compared to ALMC1

**Q.** And the “percentage of live cells” value (RPMI [13])?
**A.** 59%
